How the values were obtained:
cps1-1 and cps2-1 = test: pyrimidine rescue of cps1-1 and cps2-1 replication and plaque formation; assay type: cell-based, Toxoplasma gondii; conditions: for rescue of replication (doublings) of cps1-1 and cps2-1: 36-hour replication assay, HFF; for rescue of plaque formation of cps1-1 and cps2-1: plaque assay
Protocol: No pyrimidine compound at less than 25 μM could rescue plaque formation of cps1-1 or cps2-1. […] Uridine was quite poor at rescue of plaque formation in cps1-1 and cps2-1.
A more detailed growth response to pyrimidine, measured as parasite replications (doublings) was performed for cps1-1 and cps2-1 and compared to the results previously obtained for […]. […] Uridine rescue was poor, with a slow restoration of growth at very high amounts, >400 μM. Deoxyuridine rescue was significant, but again, full growth rate was not restored at any concentration of deoxyuridine. Rescue with uracil was robust, but only in a limited range of concentration. Full restoration of growth rate in cps1-1 and cps2-1 was possible only with uracil added between 200 and 400 μM. […] This phenotype can only be observed in T. gondii pyrimidine auxotroph mutants, not in wild-type parasites with intact de novo pyrimidine synthesis pathways.
The pyrimidine growth dependence of mutant cps1-1 on the pyrimidine salvage pathway was further documented in thymidine interference experiments. Mutant cps1-1 plaques well in 250 μM uracil or deoxyuridine, but not in 1000 μM thymidine. Since thymidine at 1000 μM is known to inhibit approximately 90% of the parasite nucleoside phosphorylase activity specific for cleavage of deoxyuridine (Iltzsch, (1993) J. Euk. Micro. 40:24-28), growth of cps1-1 was tested in combinations of 1000 μM thymidine and 250 μM uracil or 250 μM deoxyuridine. All pyrimidine salvage in T. gondii must pass through uracil and UPRT conversion of uracil to UMP. In contrast, thymidine has no effect on UPRT activity. Thus, if growth of cps1-1 were dependent on deoxyuridine supplementation then replication in this condition may be inhibited by co-supplementing with 1000 μM thymidine. […] Thus, when cps1-1 is grown in deoxyuridine the parasite strictly requires nucleoside phosphorylase activity to cleave deoxyuridine for growth. […] Thus, cps1-1 and cps2-1 rely strictly on pyrimidine salvage enzymes for growth and further, the HFF host cell in vitro cannot supply sufficient pyrimidines for growth of cps1-1 or cps2-1. […] Such potential inhibitors can only be identified using a pyrimidine auxotroph such as provided in the instant invention.
To assess reversion, 10^6 to 10^7 cps1-1 or cps2-1 parasites were periodically inoculated into HFF flasks supplemented with 5 μM uridine. This concentration of uridine is sufficient to rescue the parent strains (cps1 and cps2) of cps1-1 and cps2-1.

wild-type T. gondii = test: labeling of parasites with [3H]pyrimidines (pyrimidine salvage); assay type: cell-based, Toxoplasma gondii; conditions: parasites grown in host cells
Protocol: (§1) Initial experiments primarily involved an enzymatic analysis of drug resistant mutants and the incorporation of various pyrimidine analogs into T. gondii RNA and DNA as an indication of pyrimidine salvage when parasites were grown in either normal host or mutant host cells. All biochemical communications between the parasite and host cells cross the vacuolar membrane which is now known to contain “pores” that permit the passage of nucleobases ranging in molecular mass from 112 daltons up to 244 daltons. The size of the pores is estimated to be approximately 1500 daltons. A T. gondii mutant resistant to 5-fluorodeoxyuridine (FUDR-1) had lost uracil phosphoribosyltransferase (UPRT), an enzyme which is absent in normal host cells (Pfefferkorn (1978) Expt. Parasitol. 44:26-35). […] FUDR-1 mutant parasites were not labeled with [^3H]deoxyuridine. […] FUDR-1 mutant parasites were not labeled with [^3H]uridine. […] FUDR-1 (UPRT knock-out) parasites were not labeled with [^3H]uracil.
Similarly, since uracil only labels the parasite, due to the parasite UPRT, which is absent in the host, the pyrimidine pools of the parasite are also unavailable to the host. Thus, there is no detectable pyrimidine traffic detected between the parasite and host.

cps1 and cps2 mutants = test: pyrimidine dependence of cps1 and cps2 replication and plaque formation; assay type: cell-based, Toxoplasma gondii; conditions: for rescue of growth rate / replication of cps1 and cps2: relatively low (thymine, thymidine: moderate) concentrations in medium; for rescue of replication of cps1 and cps2: very high concentrations
Excerpt: However, all of these mutants are somewhat “leaky” in that there was not an absolute growth (replication) dependence on uracil addition to the growth medium for replication. Each of these mutants grows at a moderate (½ of normal) growth rate for the first 2 days following infection of a host cell producing vacuoles that contained 16 to 32 parasites by 3 days post infection. In contrast, RH parasites are lysed out of their primary vacuoles at this time (3 days, >64 parasites). However, the cps mutants slow after 3 days and many parasites never (about ⅓) break out of their primary vacuole. If the primary vacuole breaks, a few parasites can be detected at the site of infection but the infection site always involves a small zone of infection that never forms a visible plaque in a standard 7 day plaque assay. To quantitate growth of these mutants, HFF flasks were inoculated with […] or cps2 parasites (about a multiplicity of infection (MOI) of 1 parasite per 20 HFF cells). After 2 hours of attachment and invasion (all of these mutants have normal attachment and invasion phenotypes as scored by counting percent entered parasites into host cells as a function of time post-inoculation), different concentrations of different pyrimidine compound was added to parallel infected HFF flasks. As a function of time post pyrimidine addition (t=0 hour) the number of parasites per vacuole was scored for 50 vacuoles as described by Fox et al. ((1999) supra). The number of parasite doublings was calculated based on 1 parasite entering each primary vacuole. Thus, 1 doubling=2 parasites per vacuole, 3 doublings=8 parasites per vacuole, and 5 doublings=32 parasites per vacuole. The pyrimidine dependence of cps1 and cps2 replication (doublings of parasites in the vacuole) was plotted graphically. […] The response to thymine and thymidine was additionally informative about the cause of the growth defect in cps1 and cps2. […] This is believed to be caused by the putative defect in the cps1 and cps2 mutants which is a reduced “pool” size of UMP. If UMP pools (ultimately used for RNA and DNA synthesis) are lowered it follows that a resulting decrease in TMP pools is expected since UMP is the precursor of TMP in T. gondii and all other apicomplexan parasites which normally lack TK activity. However, since cps1 and cps2 now express a TK activity carried into the parasite by the p53KOX3-1R plasmid, exemplified by sensitivity of these mutants to ganciclovir (specific to HSV TK), feeding parasites either thymine or thymidine is expected to increase TMP pools. Thus, it appears that moderate levels of thymine or thymidine partially rescue growth of cps1 and cps2 by restoring TMP pools. […] Since the parasite has no mechanism to convert TMP back to UMP there is still a defect in the UMP pool in cps1 and cps2 even with added thymine or thymidine and rescue is never complete. The ability of cps1 and cps2 mutants to form plaques on HFF monolayers in the standard 7 day assay paralleled the pyrimidine dependence of parasite replication in vacuoles.
The cps1 and cps2 mutants were inoculated intraperitoneally (i.p.) into balb/c mice to measure parasite virulence compared to virulent RH parasites. Both mutant cps1 and cps2 had equal virulence as RH parasites in balb/c mice (Jackson Labs), killing all mice within 10 days of i.p. inoculation (group size was four mice per parasite strain). Only 100 parasites (˜50 PFU) of each parasite strain was needed to kill all mice in each group. This pattern of virulence can be understood by re-examining the pyrimidine dependence of cps1 and cps2 growth. Uridine is believed to be the pyrimidine responsible for virulence of cps1 and cps2 in mice. Only 5 μM uridine completely rescues normal plaque size of cps1 and cps2 in vitro. Plasma concentrations of uridine in mice are approximately 5 to 10 μM.

FUDR-1 mutant parasites = test: labeling of FUDR-1 (UPRT knock-out) parasites with [3H]pyrimidines; assay type: cell-based, Toxoplasma gondii
Protocol: as §1

[1] = system: parasite nucleoside phosphorylase activity specific for cleavage of deoxyuridine; conditions: thymidine at 1000 μM; cited from earlier work
mammalian CPSII = conditions: hamster CPSII; cited from earlier work

Row | Compound | rescue of replication (doublings) of cps1-1 and cps2-1 (cps1-1 and cps2-1) | rescue of plaque formation of cps1-1 and cps2-1 (cps1-1 and cps2-1) | incorporation of [3H]-labeled pyrimidine into wild-type parasites (wild-type T. gondii) | rescue of growth rate / replication of cps1 and cps2 (cps1 and cps2 mutants) | labeling of FUDR-1 mutant parasites with [3H]pyrimidine (FUDR-1 mutant parasites) | rescue of replication of cps1 and cps2 (cps1 and cps2 mutants) | Effect on CPS or CPSII (mammalian CPSII) | further results
1 | O=c1ccn([C@H]2C[C@H](O)[C@@H](CO)O2)c(=O)[nH]1 [deoxyuridine] | significant | significant growth rescue | incorporated into wild-type T. gondii | completely rescued | not labeled |  |  | plaque formation of cps1-1 (cps1-1 and cps2-1; 250 μM supplement): plaques well
2 | Cc1cn([C@H]2C[C@H](O)[C@@H](CO)O2)c(=O)[nH]c1=O [thymidine] | remained as a single non-replicated parasite | no response was detected | did not incorporate | partially rescued |  | did not rescue replication |  | plaque formation of cps1-1 (cps1-1 and cps2-1; 1000 μM thymidine): not; effect on deoxyuridine-dependent growth of cps1-1 (cps1-1 and cps2-1; 1000 μM thymidine plus 250 μM deoxyuridine): did block; effect on UPRT or uracil dependent growth of cps1-1 (cps1-1 and cps2-1; 1000 μM thymidine plus 250 μM uracil): did not affect; inhibition of parasite nucleoside phosphorylase activity [1]: approximately 90%
3 | Cc1c[nH]c(=O)[nH]c1=O [thymine] | remained as a single non-replicated parasite | no response was detected | did not incorporate | partially rescued |  | did not rescue replication |  | 
4 | O=c1ccn([C@@H]2O[C@H](CO)[C@@H](O)[C@H]2O)c(=O)[nH]1 [uridine] | poor | quite poor | incorporated into wild-type parasites | completely rescued | not labeled |  |  | support of growth of cps1-1 or cps2-1 (cps1-1 and cps2-1; 5 μM uridine): insufficient to support any growth; uridine concentration giving slow restoration of growth (cps1-1 and cps2-1; cps1-1, cps2-1): > 400 µM; uridine concentration that rescues cps1 and cps2 (normal plaque size) (cps1 and cps2 mutants; in vitro): 5 µM
5 | H. a. S1345A: hamster CPSII with regulatory domain serine to alanine mutation |  |  |  |  |  |  | Reduces PRPP activation | 
6 | H. a. T456A: mammalian (hamster) CPSII with MAPK site mutation T456A |  |  |  |  |  |  | Abolishes MAPK activation | 

— patent publication US8673289B2, “Attenuated uracil auxotroph of an apicomplexan and use thereof” (priority 2007, dated 2014)
